{
  "source": "patent US20240261333A1",
  "about": "“NOVEL TARGETS FOR ENHANCING ANTI-TUMOR IMMUNITY” (THE BROAD INSTITUTE, INC., priority 2021, published 2024)",
  "key": {"[1]": {"test_system": "A375 (NY-ESO-1+, HLA-A2+) melanoma cells", "assay": "T cell cytotoxicity assay (CellTiter-Glo), A375 against ESO T cells", "type": "cell-based, human", "procedure": "(§1) Expanded T cells were thawed and maintained in culture media for 8-10 h before incubation with cancer cells. Cancer cells were seeded in 96-well plates and allowed to attach for 3-4 h before T cells were added at the appropriate effector to target cell (E:T) ratio. Paired controls with no T cells added were included for each condition. After 18 h, cancer cells were washed twice with PBS to remove T cells, passaged, and cultured for 2 days. Primary patient-derived cell models were not passaged after T cell co-culture. Viability was measured using CellTiter-Glo (Promega G7571). For each E:T ratio, percent survival was calculated as viability of the cells incubated with T cells divided by viability of the paired control that was not incubated with T cells. For example, CD274-overexpressing melanoma cells that were co-cultured with ESO T cells were compared to CD274-overexpressing melanoma cells that were cultured without T cells in parallel. As an alternative cytotoxicity assay, A375 cells stably expressing Gaussia luciferase were co-cultured with ESO T cells. At each time point, 10% of cell culture media was used for the Gaussia luciferase assay (Targeting Systems GAR-2B) to directly measure cytotoxicity.\n(§2) For glycosylation inhibition, cells were treated with 20 μg/mL Kifunensine (Cayman Chemical 10009437) or 2 mM Benzyl 2-acetamido-2-deoxy-alpha-D-galactopyranoside (BAG; Millipore Sigma B4894-100MG) for 48 h to inhibit N- and O-glycosylation respectively unless otherwise indicated. For MCL1 inhibition, cells were treated with 1-10 μM of S63845 (Selleck Chemicals S8383) or AZD5991 (Selleck Chemicals S8643) for 4 h before incubation with T cells. Both glycosylation and MCL1 inhibitors were maintained at indicated concentrations during co-culture with T cells."}, "[2]": {"test_system": "A375 cells overexpressing B3GNT2", "assay": "Binding of recombinant T cell proteins to A375 cells, flow cytometry", "type": "cell-based, human", "procedure": "as §2\nPer condition, 5×10^5 cells were pelleted at 200×g for 5 min and washed once with PBS. Cell were fixed in 4% Formaldehyde in PBS at 4° C. for 10 mins. Cells were washed twice with PBS and resuspended in PBS with 25 μg/mL recombinant Fc chimera proteins [PVRIG (R&D Systems 9365-PV-050), CD226 (R&D Systems 666-DN-050), NKG2D (R&D 1299-NK-050), TREML2 (R&D Systems 3259-TL-050), CD2 (R&D Systems 1856-CD-050), CD96 (R&D Systems 9360-CD-050), TIGIT (BPS Bioscience 71186), CD27 (BPS Bioscience 71176), or 4-1BB (TNFRSF9; Sino Bio 10041-H03H)], 0.1 μg/mL HLA-A2:NY-ESO-1 Fab (Stewart-Jones et al., 2009), 5 μg/mL Fas antibody (Millipore Sigma 05-201), 25 μg/mL TNFRSF10B antibody (Novus Biologicals NB100-56618, 1:200), or Dylight 649 labeled Tomato Lectin (Vector Laboratories DL-1178, 1:100). Cells were incubated at 4° C. for 1 h. Cells were washed twice with PBS and resuspended in PBS with the appropriate secondary antibody [IgG Fc PE (Thermo Fisher Scientific 12-4998-82, 1:50), His Tag Alexa Fluor 647 (Thermo Fisher Scientific MA121315A647), mouse Alexa Fluor 568 (Thermo Fisher Scientific A-11031), or rabbit Alexa Fluor 647 (Thermo Fisher Scientific A-21244)]. Cells stained with Tomato Lectin were not incubated with additional secondary antibodies. […] For each sample, 10,000 cells were analyzed on a CytoFLEX Flow Cytometer (Beckman Coulter) and quantified with FlowJo (FlowJo). For each experiment, median fluorescence values for 3 biological replicates were compared to determine statistical significance."}, "[3]": {"test_system": "SW1417 (HER2+) colorectal adenocarcinoma cells", "assay": "T cell cytotoxicity assay, SW1417 against HER2 CAR T cells", "type": "cell-based, human", "settings": "SW1417 treated with small molecule inhibitor", "procedure": "as §1, with “cytotoxicity. […]” for “cytotoxicity.”"}, "[4]": {"target": "Golgi Class I mannosidases IA, IB and IC", "settings": "cited from earlier work"}, "[5]": {"test_system": "A375 cells overexpressing B3GNT2", "assay": "Intra- and extra-cellular poly-LacNAc by tomato lectin staining, flow cytometry", "type": "cell-based, human", "settings": "A375 overexpressing B3GNT2, pretreated with different concentrations of inhibitor", "procedure": "as §2\nPer condition, 5×10^5 cells were pelleted at 200×g for 5 min and washed once with PBS. Cell were fixed in 4% Formaldehyde in PBS at 4° C. for 10 mins. […] For each sample, 10,000 cells were analyzed on a CytoFLEX Flow Cytometer (Beckman Coulter) and quantified with FlowJo (FlowJo). For each experiment, median fluorescence values for 3 biological replicates were compared to determine statistical significance."}},
  "data": [
    {"compound": "O=C1N[C@@H]2[C@@H](O)[C@@H](O)[C@H](O)[C@@H](CO)N2C1=O", "note": "[kifunensine]", "values": [
      {"measurement": "Cell survival against T cell cytotoxicity, A375", "setting": "[1]; A375 treated with small molecule inhibitor", "result": "reduced survival"},
      {"measurement": "Cell survival against T cell cytotoxicity", "setting": "[1]; B3GNT2-overexpressing A375 pretreated with inhibitor, E:T ratio of 3, kifunensine having a stronger effect", "result": "reduced A375 survival"},
      {"measurement": "Binding of recombinant T cell proteins to A375 cells", "setting": "[2]; B3GNT2-overexpressing A375 treated with inhibitor, CD2, 4-1BB, TREML2, NKG2D", "result": "rescued the reduction in T cell protein binding"},
      {"measurement": "HLA-A2:NY-ESO-1 antibody binding to A375 cells", "setting": "[2]; B3GNT2-overexpressing A375 treated with kifunensine", "result": "further reduced binding"},
      {"measurement": "Cell survival against T cell cytotoxicity, SW1417", "setting": "[3]", "result": "reduced survival"},
      {"measurement": "Ki", "setting": "[4]", "result": 23, "unit": "nM"},
      {"measurement": "poly-LacNAc measured by tomato lectin staining", "setting": "[5]", "result": "reduced poly-LacNAc added by B3GNT2 in a dosage-dependent manner"}
    ]}
  ]
}
